Assay results reported in publication PMC5382548 (Scientific Reports, 2015).

Tests used:
[1] = tested on: KRAS21R G4; assay: Binding stoichiometry, Job plot (continuous variation); set-up: species or system human; conditions: [3e] + [G4] = 4 μM, 25°C
Description: In order to determine the number of ligand-binding sites, continuous variation analysis (Job plot)[27] of 3e with KRAS21R was performed. Plotting of fluorescence as a function of the mole fraction of 3e (χ) gave linear dependences at high and low molar fractions (Figure S9b).
The binding stoichiometry of indolo[3,2-c]quinoline derivative 3e with KRAS21R G4 was obtained by spectrophotofluorimetry at 25°C using the Job method of continuous variation. A previously annealed G4 stock solution at 25 μM (heating to 95°C for 10 min, followed by slow cooling to RT) of the non-labelled oligonucleotide sequences KRAS21R in K-cacodylate buffer pH 7.4 (containing 60 mM K^+) was used. Test compound was prepared at 1 mM concentration in HPLC-grade water (10% DMSO) stock solution. The rest of the dilutions were performed using K-cacodylate buffer. Total concentration of ligand and G4 in the solution was kept constant ([3e] + [G4] = 4 μM) as previously described.
Figure S9 | a) CD titration spectra of the KRAS21R and induced by titration with 3e in K-cacodylate buffer pH 7.4, containing 60 mM K+ at 25 °C. Solid black line – Pure G4 DNA at […]
sequentially from the top around 260 nm; b) Job Plot of 3e in complex with KRAS21R G4 in K-cacodylate buffer pH 7.4, containing 60 mM K+, at 25 °C. The sum of the concentrations of 3e and G4 was kept constant at 4 µM.
Figure S10. […]

[2] = tested on: HT21 (DNA, G4) GGGTTAGGGTAGGGTTAGGG; assay: circular dichroism; conditions: 60 mM K+; K-cacodylate pH 7.4, 25 °C; hybrid G4 changes to antiparallel
[3] = tested on: SW620 metastatic colon cancer cells; assay: Guava ViaCount assay, SW620; assay type: cell-based, human; conditions: IC65 concentration, 72 h
From the text: The ability of IQcs to induce cell death in colon cancer cell lines with different genotypes (HCT116 and SW620) and in the non-malignant cell line HEK293T was studied by a Guava Via Count assay and compared with the behaviour of 5-FU and TMPyP4 at equitoxic concentrations (IC50 and IC65). Results in Figure 7 show dose-dependent induction of cell death, mainly by apoptosis, by all tested compounds in the HCT116 colon cancer cell line. […] In SW620 metastatic colon cancer cells, cell death induction was highly dependent on the number and position of side chains in IQc compounds. […]
Figure 7 Evaluation of the effect of IQc on cell viability using the ViaCount assay. […] Results are expressed as the mean percentage (%) of viable (white), mid-apoptotic (grey) and dead (black) cells ± SEM, of at least three different experiments, for (a) IC50, and for (b) IC65 compound concentrations. a, p < 0.05; b, p < 0.01 from DMSO (vehicle control); c, p < 0.05; and d, p < 0.01 from 5-FU. […]
Taqman Real-time PCR reactions were performed using 1.5 µg of total RNA, using High Capacity RNA to cDNA kit, according to the manufacturer`s instruction. […] The comparative threshold cycle method was used to calculate the amplification factor, where the threshold cycle (Ct) is defined as the cycle number at which the fluorescence passes the fixed threshold intensity level. […]

SMILES: CCN(CC)CCCNc1ccc2c(c1)[nH]c1c2c[n+](C)c2ccc(NCCCN(CC)CC)cc12.[Cl-] [3e]
- Job plot molar fraction at intersection [1]: 0.61
- binding [2]: yes

SMILES: C[n+]1ccc(-c2c3nc(c(-c4cc[n+](C)cc4)c4ccc([nH]4)c(-c4cc[n+](C)cc4)c4ccc([nH]4)c(-c4cc[n+](C)cc4)c4nc2C=C4)C=C3)cc1 [TMPyP4, reference compound]
- Cell death induced, SW620 [3]: > 20%
